Tests used:
CMV = test: microbe, parasite or virus in culture; type: cell-based; conditions: Human betaherpesvirus 5, 72 h, read-out: CMV-Luc Cellular EC50, NN-NHDF cells, MOI 1, 72 hrs
CMV-polymerase = CMV-polymerase (Human cytomegalovirus (strain AD169) (HHV-5) (Human herpesvirus 5), UniProt P08546); test: biochemical; conditions: read-out: CMV-polymerase Biochemical IC50

Question: Which EC50 (CMV) does the source give for Cn1nc(C(=O)NCc2ccc(C#N)cc2)c2c1C(=O)N(CC1(S(=O)(=O)N3CCC(C)(O)C3)CC1)CC2 (single isomer, unassigned) [Example 130, (R)- or (S)-N-(4-Cyanobenzyl)-6-((1-((3-hydroxy-3-methylpyrrolidin-1-yl)sulfonyl)cyclopropyl)methyl)-1-methyl-7-oxo-4,5,6,7-tetrahydro-1H-pyrazolo[3,4-c]pyridine-3-carboxamide] here?
Answer: The EC50 was 163 nM.

Question: And the IC50 (CMV-polymerase)?
Answer: Its IC50 is 7 nM.

Question: What does the source list for Cn1nc(C(=O)NCc2ccc(F)cc2)c2c1C(=O)N(CC1(S(=O)(=O)C3CC3)CC1)CC2 [Example 5, 6-((1-(Cyclopropylsulfonyl)cyclopropyl)methyl)-N-(4-fluorobenzyl)-1-methyl-7-oxo-4,5,6,7-tetrahydro-1H-pyrazolo[3,4-c]pyridine-3-carboxamide]?
Answer: EC50 (CMV): 284 nM; IC50 (CMV-polymerase): 30 nM

Question: Which EC50 (CMV) does the source give for CN(Cc1ccc(C#N)cc1)C(=O)c1nn(C)c2c1CCN(CC1(S(=O)(=O)C3CC3)CC1)C2=O [Example 6, N-(4-Cyanobenzyl)-6-((1-(cyclopropylsulfonyl)cyclopropyl)methyl)-N,1-dimethyl-7-oxo-4,5,6,7-tetrahydro-1H-pyrazolo[3,4-c]pyridine-3-carboxamide] here?
Answer: The EC50 was 770 nM.

Question: What about the IC50 (CMV-polymerase) of the same molecule?
Answer: The IC50 was 30 nM.

Question: For Cc1ccc(CNC(=O)c2nn(C)c3c2CCN(CC2(S(=O)(=O)C4CC4)CC2)C3=O)cc1 [Example 8, 6-((1-(Cyclopropylsulfonyl)cyclopropyl)methyl)-1-methyl-N-(4-methylbenzyl)-7-oxo-4,5,6,7-tetrahydro-1H-pyrazolo[3,4-c]pyridine-3-carboxamide], which EC50 (CMV) is on record?
Answer: The EC50 was 339 nM.

Question: And the IC50 (CMV-polymerase)?
Answer: Its IC50 is 35 nM.

Question: How did the EC50 (CMV) turn out when Cn1nc(C(=O)NCc2ccc(C#N)c(F)c2)c2c1C(=O)N(CC1(S(=O)(=O)C3CC3)CC1)CC2 [Example 9, N-(4-Cyano-3-fluorobenzyl)-6-((1-(cyclopropylsulfonyl)cyclopropyl)methyl)-1-methyl-7-oxo-4,5,6,7-tetrahydro-1H-pyrazolo[3,4-c]pyridine-3-carboxamide] was run?
Answer: The EC50 was 31 nM.

Question: And the IC50 (CMV-polymerase)?
Answer: Its IC50 is 1 nM.

Question: What does the source list for Cn1nc(C(=O)NCc2ccc(Cl)s2)c2c1C(=O)N(CC1(S(=O)(=O)C3CC3)CC1)CC2 [Example 10, N-((5-Chlorothiophen-2-yl)methyl)-6-((1-(cyclopropylsulfonyl)cyclopropyl)methyl)-1-methyl-7-oxo-4,5,6,7-tetrahydro-1H-pyrazolo[3,4-c]pyridine-3-carboxamide]?
Answer: EC50 (CMV): 259 nM; IC50 (CMV-polymerase): 26 nM

Question: Which results are given for Cc1cc(CNC(=O)c2nn(C)c3c2CCN(CC2(S(=O)(=O)C4CC4)CC2)C3=O)ccc1C#N [Example 11, N-(4-Cyano-3-methylbenzyl)-6-((1-(cyclopropylsulfonyl)cyclopropyl)methyl)-1-methyl-7-oxo-4,5,6,7-tetrahydro-1H-pyrazolo[3,4-c]pyridine-3-carboxamide]?
Answer: EC50 (CMV): 214 nM; IC50 (CMV-polymerase): 17 nM

Question: Which EC50 (CMV) does the source give for Cc1cc(C#N)ccc1CNC(=O)c1nn(C)c2c1CCN(CC1(S(=O)(=O)C3CC3)CC1)C2=O [Example 12, N-(4-Cyano-2-methylbenzyl)-6-((1-(cyclopropylsulfonyl)cyclopropyl)methyl)-1-methyl-7-oxo-4,5,6,7-tetrahydro-1H-pyrazolo[3,4-c]pyridine-3-carboxamide] here?
Answer: Its EC50 is 87 nM.

Question: And the IC50 (CMV-polymerase)?
Answer: Its IC50 is 2 nM.

Question: Cn1nc(C(=O)NCc2ccc(C#N)cc2F)c2c1C(=O)N(CC1(S(=O)(=O)C3CC3)CC1)CC2 [Example 13, N-(4-Cyano-2-fluorobenzyl)-6-((1-(cyclopropylsulfonyl)cyclopropyl)methyl)-1-methyl-7-oxo-4,5,6,7-tetrahydro-1H-pyrazolo[3,4-c]pyridine-3-carboxamide] was tested. Which EC50 (CMV) did it give?
Answer: Its EC50 is 102 nM.

Question: And the IC50 (CMV-polymerase)?
Answer: The IC50 was 6 nM.

Question: With Cn1nc(C(=O)NCc2ccc(C#N)cn2)c2c1C(=O)N(CC1(S(=O)(=O)C3CC3)CC1)CC2 [Example 14, N-((5-Cyanopyridin-2-yl)methyl)-6-((1-(cyclopropylsulfonyl)cyclopropyl)methyl)-1-methyl-7-oxo-4,5,6,7-tetrahydro-1H-pyrazolo[3,4-c]pyridine-3-carboxamide] as the molecule, how does the EC50 (CMV) read?
Answer: The EC50 was 585 nM.

Question: What about the IC50 (CMV-polymerase) of the same molecule?
Answer: The IC50 was 95 nM.

Question: With COc1cc(CNC(=O)c2nn(C)c3c2CCN(CC2(S(=O)(=O)C4CC4)CC2)C3=O)ccc1C#N [Example 15, N-(4-Cyano-3-methoxybenzyl)-6-((1-(cyclopropylsulfonyl)cyclopropyl)methyl)-1-methyl-7-oxo-4,5,6,7-tetrahydro-1H-pyrazolo[3,4-c]pyridine-3-carboxamide] as the molecule, how does the EC50 (CMV) read?
Answer: The EC50 was 162 nM.

Question: What about the IC50 (CMV-polymerase) of the same molecule?
Answer: Its IC50 is 11 nM.

Question: With C[C@H](NC(=O)c1nn(C)c2c1CCN(CC1(S(=O)(=O)C3CC3)CC1)C2=O)c1ccc(C#N)cc1 [Example 16, (S)-N-(1-(4-Cyanophenyl)ethyl)-6-((1-(cyclopropylsulfonyl)cyclopropyl)methyl)-1-methyl-7-oxo-4,5,6,7-tetrahydro-1H-pyrazolo[3,4-c]pyridine-3-carboxamide] as the molecule, how does the EC50 (CMV) read?
Answer: The EC50 was 170 nM.

Question: And the IC50 (CMV-polymerase)?
Answer: The IC50 was 13 nM.

Question: C[C@@H](NC(=O)c1nn(C)c2c1CCN(CC1(S(=O)(=O)C3CC3)CC1)C2=O)c1ccc(C#N)cc1 [Example 17, (R)-N-(1-(4-Cyanophenyl)ethyl)-6-((1-(cyclopropylsulfonyl)cyclopropyl)methyl)-1-methyl-7-oxo-4,5,6,7-tetrahydro-1H-pyrazolo[3,4-c]pyridine-3-carboxamide] was tested. Which EC50 (CMV) did it give?
Answer: The EC50 was over 10000 nM.

Question: And the IC50 (CMV-polymerase)?
Answer: Its IC50 is 16900 nM.

Question: What does the source list for Cn1nc(C(=O)N[C@@H](CO)c2ccc(Cl)cc2)c2c1C(=O)N(CC1(S(=O)(=O)C3CC3)CC1)CC2 [Example 18, (R)-N-(1-(4-Chlorophenyl)-2-hydroxyethyl)-6-((1-(cyclopropylsulfonyl)cyclopropyl)methyl)-1-methyl-7-oxo-4,5,6,7-tetrahydro-1H-pyrazolo[3,4-c]pyridine-3-carboxamide]?
Answer: EC50 (CMV): 301 nM; IC50 (CMV-polymerase): 22 nM

Question: Which results are given for Cn1nc(C(=O)N[C@H](CO)c2ccc(Cl)cc2)c2c1C(=O)N(CC1(S(=O)(=O)C3CC3)CC1)CC2 [Example 19, (S)-N-(1-(4-Chlorophenyl)-2-hydroxyethyl)-6-((1-(cyclopropylsulfonyl)cyclopropyl)methyl)-1-methyl-7-oxo-4,5,6,7-tetrahydro-1H-pyrazolo[3,4-c]pyridine-3-carboxamide]?
Answer: EC50 (CMV): > 10000 nM; IC50 (CMV-polymerase): 55 nM

Question: Which EC50 (CMV) does the source give for CCS(=O)(=O)C1(CN2CCc3c(C(=O)NCc4ccc(C#N)cc4)nn(C)c3C2=O)CC1 [Example 20, N-(4-Cyanobenzyl)-6-((1-(ethylsulfonyl)cyclopropyl)methyl)-1-methyl-7-ox0-4,5,6,7-tetrahydro-1 H-pyrazolo[3,4-c]pyridine-3-carboxamide] here?
Answer: The EC50 was 106 nM.

Question: And the IC50 (CMV-polymerase)?
Answer: The IC50 was 6 nM.

Question: Which results are given for Cn1nc(C(=O)NCc2ccc(C#N)cc2)c2c1C(=O)N(CC1(S(C)(=O)=O)CC1)CC2 [Example 21, N-(4-Cyanobenzyl)-1-methyl-6-((1-(methylsulfonyl)cyclopropyl)methyl)-7-oxo-4,5,6,7-tetrahydro-1 H-pyrazolo[3,4-c]pyridine-3-carboxamide]?
Answer: EC50 (CMV): 147 nM; IC50 (CMV-polymerase): 9 nM

Question: With Cn1nc(C(=O)NCc2ccc(Cl)cc2)c2c1C(=O)N(CC1(S(C)(=O)=O)CC1)CC2 [Example 22, N-(4-Chlorobenzyl)-1-methyl-6-((1-(methylsulfonyl)cyclopropyl)methyl)-7-oxo-4,5,6,7-tetrahydro-1H-pyrazolo[3,4-c]pyridine-3-carboxamide] as the molecule, how does the EC50 (CMV) read?
Answer: Its EC50 is 113 nM.

Question: And the IC50 (CMV-polymerase)?
Answer: The IC50 was 12 nM.

— patent US12338220B2, “Antiviral pyrazolopiridinone compounds” (Novartis AG, priority 2019, dated 2025)
